These results are taken from patent publication US12448399B2, “Cereblon-based KRAS degrading PROTACs and uses related thereto” (Arvinas Operations, Inc., priority 2023, dated 2025).

The test system of one assay is LS180. Briefly: Tumor growth inhibition in vivo, LS180 colorectal cancer model. On the set-up: species or system CB17 SCID female mice. The note with it: dosed intravenously (IV). The method, then:
(§1) The effect on tumor growth of treatment with Compound 69 and 102 was assessed in the GP2d (95090714 Millipore Sigma, USA) and LS180 (CL-187 ATCC, USA) colorectal cancer models, and the AsPC-1 (CRL-1682 ATCC, USA), SW1990 (CRL-2172, ATCC, USA), HPAC (CRL-2119 ATCC, USA), and Panc04.03 (CRL-2555 ATCC, USA) pancreatic cancer models. Briefly, cells were grown in HYPER flasks (Corning) and harvested and prepared for implant by preparing a suspension with a final concentration of 25×10^6 cells/ml in 50% matrigel (Corning) and 50% phenol red-free media (Gibco DMEM or RPMI-1640, depending on cell line). For Panc04.03, 6-7 week NOD/SCID female mice (GemPharmatech Co. Ltd) were inoculated with 200 μl of the cell suspension ([…]) subcutaneously on the left flank under sterile conditions. For all other cell lines, 6-8 weeks old CB17 SCID female mice (Charles River Laboratories) were inoculated with 200 μl of the cell suspension (5 million cells/mouse) subcutaneously on the left flank under sterile conditions. Studies were initiated when tumors reached an average of approximately 200 mm^3. […] Tumor growth inhibition (TGI) was calculated using the formula % TGI=(VC−VT)/(VC−V0)×100 where VC, VT are the average of control and treated groups at the end of the study, and V0 is the average tumor volume at randomization.

In the next assay the target is T1, KRas-G12D (Homo sapiens, UniProt P01116, G12D).
T1 construct: insert the HiBiT tag onto the N-terminus of one or more of the endogenous KRas alleles; host or cells: AsPC-1 HiBiT-KRasG12D knock-in clone (one tagged allele, two untagged KRasG12D alleles)
T1 sequence (P01116 1-188 isoform P01116-2 G12D): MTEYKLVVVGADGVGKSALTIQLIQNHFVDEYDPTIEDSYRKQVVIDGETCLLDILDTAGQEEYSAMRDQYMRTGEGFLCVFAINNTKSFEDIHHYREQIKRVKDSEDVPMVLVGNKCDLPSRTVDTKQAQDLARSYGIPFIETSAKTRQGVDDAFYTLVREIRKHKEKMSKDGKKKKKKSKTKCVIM
Briefly: HiBiT Degradation Assay (G12D), AsPC-1 HiBiT-KRasG12D cells, 24 hr. The note with it: for Dmax: ASPC1, AsPC-1 cells, maximum degradation observed; for DC50: AsPC-1 cells. Type of assay: cell-based. Summed up: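 Degradation was read after 24 hr compound exposure (0.5% DMSO, 37° C) by Nano-Glo HiBiT lytic luminescence in AsPC-1 cells carrying a HiBiT tag on one of three KRasG12D alleles. Signal relative to DMSO gave DC50 and Dmax by 4-parameter fit; alamar blue fluorescence monitored cytotoxicity.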

In another assay the test system is Panc04.03. Description: Tumor growth inhibition in vivo, Panc04.03 pancreatic cancer model. On the set-up: species or system NOD/SCID female mice. The conditions noted are these: Panc04.03 model, dosed intravenously (IV). Here is the method:
as §1

In the next assay the test system is HPAC. Briefly: Tumor growth inhibition in vivo, HPAC pancreatic cancer model. Set-up: species or system CB17 SCID female mice. The conditions noted are these: dosed intravenously (IV). Here is the method: as §1
The next assay deals with SW1990. Description: Tumor growth inhibition in vivo, SW1990 pancreatic cancer model. On the set-up: species or system CB17 SCID female mice. The conditions noted are these: dosed intravenously (IV). Here is the method:
as §1

The test system of the next assay is AsPC-1. Description: Tumor growth inhibition in vivo, AsPC-1 pancreatic cancer model. On the set-up: species or system CB17 SCID female mice. The conditions noted are these: AsPC-1 model, dosed intravenously (IV). The method, then: as §1
In a further assay the test system is GP2d. Briefly: Tumor growth inhibition in vivo, GP2d colorectal cancer model. On the set-up: species or system CB17 SCID female mice. The conditions noted are these: dosed intravenously (IV). The method, then: as §1

Where only a bound is given, the exact number is not on record here.

The term Dmax denotes the largest share of the target that was removed. Lower therefore signals shallow degradation. A word on the DC50: it is the concentration at which degradation of the target reaches its halfway point. Higher therefore signals degradation only at high concentration. Regarding `C#Cc1c(F)ccc2cc(O)cc(-c3ncc4c(N5CC6CCC(C5)N6)nc(OCCN5CCC(CC6CCN(CC7CCN(c8ccc9c(c8F)CN(C8CCC(=O)NC8=O)C9=O)CC7)CC6)CC5)nc4c3F)c12` (centres unmarked) [Compound 69, 3-[5-[4-[[4-[[1-[2-[4-(3,8-diazabicyclo[3.2.1]octan-3-yl)-7-(8-ethynyl-7-fluoro-3-hydroxy-1-naphthyl)-8-fluoro-pyrido[4,3-d]pyrimidin-2-yl]oxyethyl]-4-piperidyl]methyl]-1-piperidyl]methyl]-1-piperidyl]-4-fluoro-1-oxo-isoindolin-2-yl]piperidine-2,6-dione], the “Tumor growth inhibition (TGI)” value in the assay on LS180, in the assay on Panc04.03, in the assay on HPAC, with SW1990 and in the assay with GP2d was “robust TGI” each time. Further, the Dmax on KRas-G12D is > 70%. In addition, the DC50 at KRas-G12D was < 5.1 µM. Also, the Tumor growth response entry with AsPC-1 is listed as “More moderate response”.

For orientation: TGI means the reduction of tumour growth relative to the control group. Read a high TGI as much slowing of growth. As to `C#Cc1c(F)ccc2cc(O)cc(-c3ncc4c(N5CC6CCC(C5)N6)nc(OCCN5CCC(CC6CCN(CC7CCN(c8ccc9c(c8)n(C)c(=O)n9C8CCC(=O)NC8=O)CC7)CC6)CC5)nc4c3F)c12` (centres unmarked) [Compound 102, 3-[5-[4-[[4-[[1-[2-[4-(3,8-diazabicyclo[3.2.1]octan-3-yl)-7-(8-ethynyl-7-fluoro-3-hydroxy-1-naphthyl)-8-fluoro-pyrido[4,3-d]pyrimidin-2-yl]oxyethyl]-4-piperidyl]methyl]-1-piperidyl]methyl]-1-piperidyl]-3-methyl-2-oxo-benzimidazol-1-yl]piperidine-2,6-dione], the “Tumor growth inhibition (TGI)” value in the assay on LS180, in the assay with Panc04.03, in the assay with HPAC, in the assay on SW1990 and in the assay on GP2d was “robust TGI” in each case. Besides, on KRas-G12D, the greatest degradation seen (Dmax) is > 70%. Moreover, the 50% degradation concentration (DC50) on KRas-G12D is < 5.1 µM. The inhibition of tumour growth (TGI) with AsPC-1 is recorded as 100%.

`C#Cc1c(F)ccc2cc(O)cc(-c3ccc4c(N5CC6CCC(C5)N6)nc(OCCN5CCC(CN6CCC(CC7CCN(c8ccc9c(c8F)n(C)c(=O)n9C8CCC(=O)NC8=O)CC7)CC6)CC5)nc4c3F)c12` (centres unmarked) [Compound 231]: at KRas-G12D, the Dmax was > 70% and the DC50 was < 5.1 µM.

For `C#Cc1c(F)ccc2cc(O)cc(-c3ccc4c(N5CC6CCC(C5)N6)nc(OCCN5CCC(CC6CCN(CC7CCN(c8ccc9c(c8F)n(C)c(=O)n9C8CCC(=O)NC8=O)CC7)CC6)CC5)nc4c3F)c12` (centres unmarked) [Compound 232], at KRas-G12D, the Dmax is > 70% and the DC50 was < 5.1 µM.

With `C#Cc1c(F)ccc2cc(O)cc(-c3ccc4c(N5CC6CCC(C5)N6)nc(OCCN5CCC(CN6CCC(CC7CCN(c8ccc9c(c8)n(C)c(=O)n9C8CCC(=O)NC8=O)CC7)CC6)CC5)nc4c3F)c12` (centres unmarked) [Compound 233], on KRas-G12D, the Dmax is > 70% and the DC50 was < 5.1 µM.

Take `C#Cc1c(F)ccc2cccc(-c3ncc4c(N5CC6CCC(C5)N6)nc(OC[C@@]56CCCN5[C@H](CN5CCN(CC7CCN(c8ccc9c(c8)n(C)c(=O)n9C8CCC(=O)NC8=O)CC7)CC5)CC6)nc4c3F)c12` (some centres unmarked) [Compound 234]: on KRas-G12D, the Dmax was > 70% and the DC50 was < 5.1 µM.

As to `C#Cc1c(F)ccc2cc(O)cc(-c3ncc4c(N5CC6CCC(C5)N6)nc(N5CC[C@@H](N6CCC(CC7CCN(c8ccc9c(c8)n(C)c(=O)n9C8CCC(=O)NC8=O)CC7)CC6)C5)nc4c3F)c12` (stereo partly drawn) [Compound 236, 3-[5-[4-[[1-[(3R)-1-[4-(3,8-diazabicyclo[3.2.1]octan-3-yl)-7-(8-ethynyl-7-fluoro-3-hydroxy-1-naphthyl)-8-fluoro-pyrido[4,3-d]pyrimidin-2-yl]pyrrolidin-3-yl]-4-piperidyl]methyl]-1-piperidyl]-3-methyl-2-oxo-benzimidazol-1-yl]piperidine-2,6-dione], at KRas-G12D, the Dmax was > 70% and the DC50 is < 5.1 µM.

Regarding `C#Cc1c(F)ccc2cc(O)cc(-c3ccc4c(N5CC6CCC(C5)N6)nc(OCCN5CCC(CC6CCN(CC7CCN(c8ccc9c(c8)n(C)c(=O)n9C8CCC(=O)NC8=O)CC7)CC6)CC5)nc4c3F)c12` (centres unmarked) [Compound 237], at KRas-G12D, the Dmax is > 70% and the DC50 was < 5.1 µM.

With `C#Cc1c(F)ccc2cccc(-c3ncc4c(N5CC6CCC(C5)N6)nc(OC[C@@]56CCCN5[C@H](CN5CCN(CC7CCN(c8ccc9c(c8F)CN(C8CCC(=O)NC8=O)C9=O)CC7)CC5)CC6)nc4c3F)c12` (some centres unmarked) [Compound 238], on KRas-G12D, the Dmax was > 70% and the DC50 is < 5.1 µM.

As to `C#Cc1c(F)ccc2cc(O)cc(-c3ncc4c(N5CC6CCC(C5)N6)nc(OCCN5CCC(CN6CCN(CC7CCN(c8ccc9c(c8F)CN(C8CCC(=O)NC8=O)C9=O)CC7)CC6(C)C)CC5)nc4c3F)c12` (centres unmarked) [Compound 239, 3-[5-[4-[[4-[[1-[2-[4-(3,8-diazabicyclo[3.2.1]octan-3-yl)-7-(8-ethynyl-7-fluoro-3-hydroxy-1-naphthyl)-8-fluoro-pyrido[4,3-d]pyrimidin-2-yl]oxyethyl]-4-piperidyl]methyl]-3,3-dimethyl-piperazin-1-yl]methyl]-1-piperidyl]-4-fluoro-1-oxo-isoindolin-2-yl]piperidine-2,6-dione], at KRas-G12D, the maximal degradation (Dmax) is > 70% and the DC50 is < 5.1 µM.
